Data published in a melting point compilation (Tetko et al.; mined from patent text by program, amines drawn as free bases though some values may be those of a salt).

Q: Which melting point does the source give for `N#Cc1ccc(-c2ccc(Cl)cc2)nc1Cl` here?
A: 179 to 181 °C

Q: For `CC1(CF)C(=O)N(c2ccc(C#N)c(C(F)(F)F)c2)C(=O)N1CCF` (stereo unspecified), which melting point is on record?
A: 137 to 138 °C

Q: For `Clc1c[nH]c2ncnc(N3CCCCC3)c12`, which melting point is on record?
A: 170 to 172 °C

Q: With `CCSc1cc(C#N)c(Oc2ccc(Cl)c(Cl)c2)cn1` as the molecule, how does the melting point read?
A: 79 to 81 °C

Q: For `CCCc1nc(C)n2ncnc2c1Cc1ccc(-c2ccccc2C#N)cc1`, which melting point is on record?
A: 112 °C

Q: For `Cn1nnnc1C(F)(F)C(O)(Cn1cncn1)c1ccc(F)cc1F` (stereo unspecified), which melting point is on record?
A: 160 to 165 °C

Q: With `Cc1ccccc1SC(NC=O)c1sccc1C` (stereo unspecified) as the molecule, how does the melting point read?
A: 103 to 104 °C

Q: Which melting point does the source give for `O=CNCc1cc(C(O)CNCCCCCCOCCCCc2ccccc2)ccc1O` (stereo unspecified) here?
A: 76 to 77 °C

Q: With `O=C1OC(=Cc2ccc3ccccc3c2)C(=O)C(c2ccc(Cl)cc2)=C1O` as the molecule, how does the melting point read?
A: 274 to 275 °C

Q: With `N#Cc1cnn2c(C(F)(F)F)cc(-c3cccc(Cl)c3)nc12` as the molecule, how does the melting point read?
A: 204 °C

Q: With `CCOC(=O)NC1=C(C(=O)OCC)CCC1` as the molecule, how does the melting point read?
A: 49 to 51 °C

Q: For `CC(C)CCCC(C)C1CCC2(CC(=O)O)C3=C(CCC12C)C1(C)CCC(O)CC1CC3` (stereo unspecified), which melting point is on record?
A: 191 to 193 °C

Q: With `CC(C)(C)C(F)(F)c1ccc(C(N)=O)cc1` as the molecule, how does the melting point read?
A: 128 to 132 °C

Q: Which melting point does the source give for `CCC1CC(=O)CC23CCN(C#N)C(Cc4ccc(OC)cc42)C13` (stereo unspecified) here?
A: 141 to 145 °C

Q: Which melting point does the source give for `CCOC(=O)COc1ccc(C(=O)Nc2cccc(Cl)c2Sc2ccccc2-c2nnn[nH]2)cc1` here?
A: 180 to 182 °C

Q: For `CC1(C)CCC(C)(C)c2cc(COc3c(C(=O)O)cccc3-c3ccccc3)ccc21`, which melting point is on record?
A: 144 to 146 °C

Q: Which melting point does the source give for `COc1cc2cc(-c3cc4cc(OC)c(OC)c(C(C)C)c4cc3C)c(C)cc2c(C(C)C)c1OC` here?
A: 215 to 216 °C

Q: For `CN(CCc1ccc([N+](=O)[O-])cc1)Cc1ccc2cc([N+](=O)[O-])ccc2n1`, which melting point is on record?
A: 104 to 105 °C

Q: With `CCCC1=NN(c2ccccn2)C(=O)C1=CNc1ccccc1CC` as the molecule, how does the melting point read?
A: 151 °C

Q: With `CCC1(O)CC(=O)OCc2c1cc1n(c2=O)Cc2c-1nc1ccccc1c2Cc1ccccc1` (stereo unspecified) as the molecule, how does the melting point read?
A: > 250 °C

Q: For `O=C(O)Cc1c(C(=O)c2ccccc2)[nH]c2ccccc12`, which melting point is on record?
A: 194 to 196 °C

Q: For `COC(=O)C(C#N)=C(Nc1cccnc1)SC`, which melting point is on record?
A: > 260 °C

Q: For `CNc1cc(F)ccc1C(=O)OC`, which melting point is on record?
A: 39 to 39.5 °C

Q: With `Cc1ccc(S(=O)(=O)OC[C@H]2COc3cc(C)c4c(c3O2)CC(=O)N4)cc1` as the molecule, how does the melting point read?
A: 233 to 235 °C

Q: Which melting point does the source give for `CC(=O)OC1CSC(Oc2cnc(Cl)c(F)c2)C(OC(C)=O)C1OC(C)=O` (stereo unspecified) here?
A: 158 to 162 °C

Q: Which melting point does the source give for `O=c1c(CCCc2cccnn2)cc2cccnc2n1-c1cccc([N+](=O)[O-])c1` here?
A: 234 to 235 °C

Q: With `CCCC(CCC)CCCC1COCCN1CCCCCO` (stereo unspecified) as the molecule, how does the melting point read?
A: 59 to 60 °C

Q: For `O=C1c2ccc(C(F)(F)F)cc2C(=O)N1c1ccc2ccc(Cl)nc2n1`, which melting point is on record?
A: 265 °C

Q: Which melting point does the source give for `Cn1cnc2c(=O)n(-c3ccccc3)c3ncccc3c21` here?
A: 262 °C

Q: For `CN(C)CCNC(=O)c1cc(Cl)c(N)cc1O`, which melting point is on record?
A: 163 to 165 °C

Q: For `CN(C)CCOc1cccc2c1c1cccc3c1n2C(c1ccccc1)CO3` (stereo unspecified), which melting point is on record?
A: 117 to 118 °C

Q: For `CCOC(Nc1ccccc1)(OCC)c1ccnc(C(=O)c2ccc(Cl)cc2)c1`, which melting point is on record?
A: 98 to 99 °C

Q: For `O=C(c1cccs1)c1cnn2c(-c3cccc(Br)c3)ccnc12`, which melting point is on record?
A: 193 to 195 °C

Q: Which melting point does the source give for `Nc1cccc(Oc2ncccc2C(=O)NCc2ccccc2Cl)c1` here?
A: 101 to 103 °C

Q: Which melting point does the source give for `Clc1ccc(-c2nc3c(c(NC4CCCC4)n2)CCC3)cc1` here?
A: 167 °C

Q: Which melting point does the source give for `OCC1OC(n2cnc3c(NNC4COc5ccccc5C4)ncnc32)C(O)C1O` (stereo unspecified) here?
A: 109 to 112 °C

Q: Which melting point does the source give for `CC(=O)O[C@@H]1[C@H](OC(C)=O)[C@@H](C)O[C@H]1n1c(Cl)nc2c(Cl)c(Cl)c(Cl)cc21` here?
A: 126 to 127 °C

Q: For `CC1=C(C(=O)OC(C)C)C(c2cccc([N+](=O)[O-])c2)n2c(cc(=O)n2C(=O)c2ccccc2)N1` (stereo unspecified), which melting point is on record?
A: 201 to 203 °C

Q: For `OC1CCN(Cc2ccc(Br)cc2)CC1N1CCC(c2ccccc2)CC1` (stereo unspecified), which melting point is on record?
A: 159 to 161 °C

Q: Which melting point does the source give for `CC(=O)SCSc1cn(C(c2ccccc2)(c2ccccc2)c2ccccc2)nn1` here?
A: 115 to 116 °C

Q: With `CN(C)S(=O)(=O)c1cccc(-c2nc(N)nc(N)n2)c1` as the molecule, how does the melting point read?
A: 250 to 251 °C

Q: With `NS(=O)(=O)c1ccc(-c2cnn(-c3ccc(F)cc3)c(=O)c2Oc2ccc(F)cc2)cc1` as the molecule, how does the melting point read?
A: 227 to 229 °C

Q: With `Clc1nc(Cl)nc(N2CC3CCC(CC3)C2)n1` as the molecule, how does the melting point read?
A: 153 to 154 °C

Q: Which melting point does the source give for `CC(=O)Nc1ccc(CCCON2CCC(C(=O)c3nc4ccccc4s3)CC2)cc1` here?
A: 171 to 172 °C

Q: For `Clc1ccc(C2=CCN(Cc3n[nH]c4c(Cl)cccc34)CC2)cc1`, which melting point is on record?
A: 171 to 173 °C

Q: With `CCCCCS(=O)(=O)NC(=O)/C=C/c1cc(OC(C)C)nn1Cc1ccc(Cl)cc1Cl` as the molecule, how does the melting point read?
A: 109 to 112 °C

Q: For `CN1CCCCC1CCc1ccccc1NC(=O)c1ccc(Br)cc1` (stereo unspecified), which melting point is on record?
A: 138 °C

Q: Which melting point does the source give for `CCCc1nc(-c2cccnc2)cnc1Cl` here?
A: 207 to 209 °C

Q: With `CC(C)C[C@@H]1NC(=O)OC1(c1ccccc1)c1ccccc1` as the molecule, how does the melting point read?
A: 212 to 214 °C

Q: For `O=C(O)C1=Cc2cc(Br)ccc2OC1C(F)(F)F` (stereo unspecified), which melting point is on record?
A: 190 to 191 °C

Q: With `O=C(ON1C(=O)CCC1=O)c1ccc(-c2ccc(S(=O)(=O)N(CCO)CCO)cc2)[nH]c1=O` as the molecule, how does the melting point read?
A: 213 to 216 °C

Q: Which melting point does the source give for `Nc1cc(C(=O)O)cc(S(N)(=O)=O)c1Nc1ccc2ccccc2c1` here?
A: 245 °C

Q: With `CCN(CC)c1ccc(C2(N(c3ccc(N(C)C)cc3)c3ccc(N(C)C)cc3)OC(=O)c3ccccc32)c(C)c1` (stereo unspecified) as the molecule, how does the melting point read?
A: 67 to 83 °C

Q: Which melting point does the source give for `CC(=O)C(C(=O)N(CCN(C)C)c1ccccc1)=C(N)c1ccccc1` here?
A: 81 to 83 °C

Q: For `CN(C1CCCCC1)S(=O)(=O)c1ccc(Cn2cnc3ccccc32)cc1`, which melting point is on record?
A: 191 to 193 °C

Q: Which melting point does the source give for `CSCCO[C@@H]1c2ccn3c(C)c(C)nc3c2N[C@H](c2ccccc2)[C@H]1O` here?
A: 118 to 119 °C

Q: For `CCc1nnc(N2N=C(c3ccc([N+](=O)[O-])cc3)c3cc4c(cc3C[C@H]2C)OCO4)s1`, which melting point is on record?
A: 105 °C

Q: Which melting point does the source give for `COC(=O)C1=C(C)Nc2ccccc2NC1c1ccccc1C(F)(F)F` (stereo unspecified) here?
A: 190 to 192 °C

Q: With `CC(C)(C)OC(=O)NCCCCCCNS(=O)(=O)c1ccc(Oc2ccccc2)cc1` as the molecule, how does the melting point read?
A: 77 to 78 °C

Q: For `[N-]=[N+]=NC(C(=O)O)c1ccsc1` (stereo unspecified), which melting point is on record?
A: 58 to 59 °C

Q: Which melting point does the source give for `O=c1c(I)coc2ccccc12` here?
A: 95 to 97 °C

Q: With `O=C(O)CCCCOc1ccc(N2CCN(c3ccncc3)CC2)cc1` as the molecule, how does the melting point read?
A: 237 to 241 °C

Q: For `CCOC(=O)c1cc2c(O)nncc2nc1N1CCCCC1`, which melting point is on record?
A: 178 to 179 °C

Q: Which melting point does the source give for `CCOC(=O)c1ccc(NC(=O)OC(C)(C)C)nn1` here?
A: 87 to 88 °C

Q: For `CCCCc1nc(CO)c(C(N)=O)n1Cc1ccc(-c2ccccc2C(=O)OC(C)(C)C)cc1`, which melting point is on record?
A: 222 to 224 °C

Q: For `CCCc1nc2c(N)nc3ccccc3c2n1CC(C)(C)C(=O)N1CCOCC1`, which melting point is on record?
A: 212 to 214 °C

Q: With `O=C(O)CN(C(=O)c1ccccc1S)C1CCCC1` as the molecule, how does the melting point read?
A: 148 to 150 °C

Q: For `CC(C)(C)OC(=O)NCC(=O)N1CCC[C@H]1C(=O)OC[C@H](Cc1ccccc1)Nc1ccc(O)c2c1C(=O)c1c(O)cccc1C2=O`, which melting point is on record?
A: 100 °C

Q: With `CN(C(=O)[C@@H](OP(c1ccccc1)c1ccccc1)C(C)(C)C)P(c1ccccc1)c1ccccc1` as the molecule, how does the melting point read?
A: 95 to 96 °C

Q: With `CC1(CO)Cc2ccccc2C1(C)C` (stereo unspecified) as the molecule, how does the melting point read?
A: 48 to 50 °C

Q: Which melting point does the source give for `CCCOc1ccccc1-c1ncc(C(=O)N(C)C)c(=O)[nH]1` here?
A: 104 to 105 °C
